A short description of the data set: Pharmacokinetic analysis in mice, plasma and brain levels by LC-MS/MS. Particulars: male C57 BL/6 mice, 10 mg/kg oral (PO). Format: in vivo. On the procedure: Pharmacokinetic Analysis of the Compounds of the Invention
Animals: Male, C57 BL/6 mice (Jackson Labs, 25-30 g in body weight) are provided by Jackson Laboratories. Up to five mice are housed per cage and are maintained under a 12 hour light/dark cycle with access to food and water ad libitum. All procedures for the handling and use of animals follow the guidelines of the Institutional Animal Care and Use Committee (IACUC) of Columbia University, in accordance with NIH guidelines. Eight week-old mice (N=3/dose level or treatment group) are used in the experiments.
Experimental Treatment: Compounds: Selected Compounds of the Invention are evaluated in the present study. […]
Compound Preparation: Powdered stocks of the test compound(s) are measured and dissolved in 3% 1N HCl, 5% Labrasol and 92% of 5% TPGS in 0.05M Citrate buffer (CB, pH 4.0). […]
Treatment of Animals: Mice (N=3 mice/dose/time point) receive a 10 mg/kg oral (PO) dose of the test compound(s) at time 0. […] Plasma and brain tissue samples are processed and analyzed by the analytical group using LC-MS/MS methods, as described below. […]
Each tube is vortexed, then centrifuged for 20 min at 15000 rpm using a Tomy benchtop centrifuge at 4° C. Standard is an internal standard used for LC-MS/MS quantitation. […]
RESULTS: Plasma and Brain Analysis: All the test compound(s) tested could be detected and analyzed when spiked into control plasma. […]

The structures appear in SMILES notation.

For `Cc1nnc2n(C)c(=O)c3c(Nc4ccccc4)n(Cc4ccc(-c5cccc(F)n5)cc4)nc3n12` [Example 2, 2-(4-(6-Fluoro-pyridin-2-yl)-benzyl)-5,8-dimethyl-3-phenylamino-2H,5H-pyrazolo[4,3-e][1,2,4]triazolo[4,3-a]pyrimidin-4-one], the oral bioavailability entry is reported as “display oral bioavailability”. Moreover, the Kp (C57BL/6, mouse, brain/plasma, 0.25-2 h, read-out: B/P ratio (Brain AUC(0-2h)/Plasma AUC(0-2h))) is at most 0.15.

Values taken from patent US9938284B2, “Organic compounds” (INTRA-CELLULAR THERAPIES, INC., priority 2014, dated 2018).
